Consider 18 molecules from patent US20240199635A1, “TETRAHYDROTHIENO PYRIDINE DERIVATIVES AS DDRS INHIBITORS” (CHIESI FARMACEUTICI S.P.A., priority 2021, published 2024).

The target of experiment [1] is T1, DDR1 (Homo sapiens (Human), UniProt Q08345). As to the kind of experiment: DDR1 binding assay (LanthaScreen Europium Kinase Binding assay). As to conditions: potency class, read-out: Ki DDR1. How it is done: (§1) DDR1 and DDR2 binding assays were performed using Life Technologies LanthaScreen™ Europium Kinase Binding assay. The compounds were incubated with 5 nM DDR1 (Carna Biosciences) or 5 nM DDR2 (Life Technologies) for 1 hour at room temperature in white 384-well OptiPlate (PerkinElmer), containing 20 nM or 10 nM Kinase Tracer 178 respectively and 2 nM Europium labelled anti-GST antibody (Life Technologies) in assay buffer (50 mM HEPES pH 7.5, 10 mM MgCl2, 1 mM EGTA and 0.01% BRIJ35).
T1 sequence (Q08345 19-913): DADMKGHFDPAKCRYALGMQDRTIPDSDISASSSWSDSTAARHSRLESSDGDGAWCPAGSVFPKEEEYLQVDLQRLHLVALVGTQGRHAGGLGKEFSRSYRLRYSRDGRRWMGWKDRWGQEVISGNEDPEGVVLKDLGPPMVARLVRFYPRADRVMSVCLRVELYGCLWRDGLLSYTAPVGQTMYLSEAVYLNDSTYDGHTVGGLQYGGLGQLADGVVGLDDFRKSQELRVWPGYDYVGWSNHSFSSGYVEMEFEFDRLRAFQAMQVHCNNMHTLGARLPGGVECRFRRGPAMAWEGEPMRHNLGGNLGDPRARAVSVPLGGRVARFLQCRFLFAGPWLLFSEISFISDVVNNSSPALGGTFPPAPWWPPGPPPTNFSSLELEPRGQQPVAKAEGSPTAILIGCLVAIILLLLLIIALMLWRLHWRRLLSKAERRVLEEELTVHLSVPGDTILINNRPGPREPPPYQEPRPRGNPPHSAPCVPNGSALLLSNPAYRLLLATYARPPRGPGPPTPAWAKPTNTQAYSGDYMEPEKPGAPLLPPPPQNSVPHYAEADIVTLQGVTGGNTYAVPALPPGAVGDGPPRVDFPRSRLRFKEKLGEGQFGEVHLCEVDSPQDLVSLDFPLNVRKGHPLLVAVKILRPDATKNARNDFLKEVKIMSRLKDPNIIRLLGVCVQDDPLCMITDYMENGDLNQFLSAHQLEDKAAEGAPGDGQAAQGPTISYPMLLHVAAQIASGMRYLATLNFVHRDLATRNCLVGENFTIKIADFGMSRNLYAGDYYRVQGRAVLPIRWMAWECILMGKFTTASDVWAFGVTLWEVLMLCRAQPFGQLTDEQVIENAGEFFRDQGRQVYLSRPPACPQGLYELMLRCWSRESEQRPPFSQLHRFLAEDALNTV
(§2) The ratio of fluorescence emission 665 nm/615 nm after excitation at 340 nm was obtained using the Tecan Spark 20M plate reader. IC50 values were determined in GraphPad Prism 7.0 software, using 4 parameter model: log(inhibitor) vs. response. IC50 values were converted in Ki using the Cheng-Prusoff equation (Ki=IC50/(1+[Tracer]/Kd).
For orientation: Time-resolved FRET reads energy transfer from a long-lived donor to a nearby acceptor.

In experiment [2] the target is DDR2 (Homo sapiens (Human), UniProt Q16832). Kind of experiment: DDR2 binding assay (LanthaScreen Europium Kinase Binding assay). As to conditions: potency class, read-out: Ki DDR2. How it is done:
as §1, §2

The target in experiment [3] is T1, DDR1. Kind of experiment: DDR1 cell based assay (PathHunter U2OS DDR1 assay). The settings on record: U2OS-DDR1 cells, Type II Collagen stimulation, potency class. Here is the method:
The inhibition of DDR1 receptor activation by compounds was evaluated by PathHunter® U2OS DDR1 assay (Eurofins DiscoverX), according to the manufacturer's instructions. Briefly, U2OS-DDR1 cells were seeded in white 384-well plates at a density of 5000 cells/well and incubated for 2 hours at 37° C. and 5% CO2. Cells were then treated with compounds at different concentrations and incubated for 30 minutes, before stimulation with bovine Type II Collagen 20 μg/ml and incubation overnight at 37° C. and 5% CO2. PathHunter Detection Reagents were prepared according to the protocol provided by DiscoverX and 20 μl/well of this mix were added to each well. After incubating the plates for 1 hour at room temperature in the dark, luminescence signal was acquired with a plate reader. Raw data were normalized to vehicle control (0% for normalization) and positive control (100% for normalization; cells treated with 20 μg/ml collagen II) and IC50 parameters were calculated in GraphPad Prism 8.0 software, using sigmoidal dose-response curve fitting with variable slope.

One may read the Ki as a dissociation constant, usually derived from enzyme kinetics or from competition with a known ligand. By IC50 is commonly meant the concentration needed to halve the response being measured. High values mean lower potency, low ones higher potency.

DDR2, sequence (Q16832 22-855): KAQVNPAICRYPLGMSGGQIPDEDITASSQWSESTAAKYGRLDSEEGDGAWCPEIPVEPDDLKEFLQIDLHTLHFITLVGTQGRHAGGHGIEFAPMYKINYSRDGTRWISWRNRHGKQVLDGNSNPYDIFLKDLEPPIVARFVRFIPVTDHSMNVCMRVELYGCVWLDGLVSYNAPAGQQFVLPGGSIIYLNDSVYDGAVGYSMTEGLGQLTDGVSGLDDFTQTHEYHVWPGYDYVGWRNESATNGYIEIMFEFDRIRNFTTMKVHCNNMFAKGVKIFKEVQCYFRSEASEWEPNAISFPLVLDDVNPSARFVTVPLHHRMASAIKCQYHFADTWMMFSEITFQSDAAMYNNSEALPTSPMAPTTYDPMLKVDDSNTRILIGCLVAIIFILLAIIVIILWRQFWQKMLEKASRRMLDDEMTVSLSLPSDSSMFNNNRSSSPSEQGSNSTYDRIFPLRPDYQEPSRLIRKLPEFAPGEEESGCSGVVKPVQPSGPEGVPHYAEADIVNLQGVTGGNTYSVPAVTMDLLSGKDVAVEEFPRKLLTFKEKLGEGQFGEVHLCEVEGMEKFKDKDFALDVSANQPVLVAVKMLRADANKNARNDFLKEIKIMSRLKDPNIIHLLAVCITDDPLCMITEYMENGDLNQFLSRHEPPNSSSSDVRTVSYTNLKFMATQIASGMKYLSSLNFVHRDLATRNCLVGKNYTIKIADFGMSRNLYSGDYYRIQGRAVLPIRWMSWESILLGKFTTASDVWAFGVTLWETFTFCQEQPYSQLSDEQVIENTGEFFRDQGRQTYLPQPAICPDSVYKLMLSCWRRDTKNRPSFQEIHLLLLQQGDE

As to `Nc1ncccc1CN1CCc2c(C(=O)Nc3cc(F)cc(C(F)(F)F)c3)csc2C1` [Example 43, 6-((2-aminopyridin-3-yl)methyl)-N-(3-fluoro-5-(trifluoromethyl)phenyl)-4,5,6,7-tetrahydrothieno[2,3-c]pyridine-3-carboxamide], the inhibition constant (Ki) in experiment [1] and in experiment [2] was less than 25 nM throughout. In addition, in experiment [3], the IC50 was less than 25 nM.
Consider `COc1cncc(CN2CCc3c(C(=O)Nc4cc(C(C)(C)C)no4)csc3C2)c1` [Example 65, N-(3-(tert-butyl)isoxazol-5-yl)-6-((5-methoxypyridin-3-yl)methyl)-4,5,6,7-tetrahydrothieno[2,3-c]pyridine-3-carboxamide], for which the inhibition constant Ki in experiment [1] and in experiment [2] was less than 25 nM in each case. The molecule also returned an IC50 in experiment [3] of 25 to 50 nM.
In the case of `N#Cc1cncc(CN2CCc3c(C(=O)Nc4cccc(C(F)(F)F)c4)csc3C2)c1` [Example 19, 6-((5-cyanopyridin-3-yl)methyl)-N-(3-(trifluoromethyl)phenyl)-4,5,6,7-tetrahydrothieno[2,3-c]pyridine-3-carboxamide], the Ki in experiment [1] and in experiment [2] was less than 25 nM throughout. This molecule came in with an IC50 in experiment [3] of 25 to 50 nM.
For the molecule `Nc1ncc(CN2CCc3c(C(=O)Nc4ccc(Cl)c(C(F)(F)F)c4)csc3C2)cn1` [Example 61, 6-((2-aminopyrimidin-5-yl)methyl)-N-(4-chloro-3-(trifluoromethyl)phenyl)-4,5,6,7-tetrahydrothieno[2,3-c]pyridine-3-carboxamide], the inhibition constant (Ki) in experiment [1] and in experiment [2] was less than 25 nM throughout. Moreover, the IC50 in experiment [3] was less than 25 nM.
Turning to `O=C(Nc1cccc(C(F)(F)F)c1)c1csc2c1CCN(Cc1cncc(F)c1)C2` [Example 24, 6-((5-fluoropyridin-3-yl)methyl)-N-(3-(trifluoromethyl)phenyl)-4,5,6,7-tetrahydrothieno[2,3-c]pyridine-3-carboxamide], the Ki in experiment [1] and in experiment [2] was less than 25 nM throughout. Moreover, in experiment [3], the half-inhibitory concentration (IC50) was 25 to 50 nM.
With `COCC(=O)Nc1ccncc1CN1CCc2c(C(=O)Nc3cccc(C(F)(F)F)c3)csc2C1` [Example 17, 6-((4-(2-methoxyacetamido)pyridin-3-yl)methyl)-N-(3-(trifluoromethyl)phenyl)-4,5,6,7-tetrahydrothieno[2,3-c]pyridine-3-carboxamide], the inhibition constant Ki in experiment [1] was less than 25 nM; in experiment [2], 25 to 50 nM. The half-maximal inhibitory concentration (IC50) in experiment [3] was in the range of 25 to 50 nM.
Regarding `Nc1ncc(CN2CCc3c(C(=O)Nc4cccc(C(F)(F)F)c4)csc3C2)cn1` [Example 28, 6-((2-aminopyrimidin-5-yl)methyl)-N-(3-(trifluoromethyl)phenyl)-4,5,6,7-tetrahydrothieno[2,3-c]pyridine-3-carboxamide], the Ki in experiment [1] and in experiment [2] was less than 25 nM throughout. The IC50 in experiment [3] was less than 25 nM.
As to `CN(C)[C@@H]1CCN(Cc2cc(NC(=O)c3csc4c3CCN(Cc3cnc(N)nc3)C4)cc(C(F)(F)F)c2)C1` [Example 50, (R)-6-((2-aminopyrimidin-5-yl)methyl)-N-(3-((3-(dimethylamino)pyrrolidin-1-yl)methyl)-5-(trifluoromethyl)phenyl)-4,5,6,7-tetrahydrothieno[2,3-c]pyridine-3-carboxamide], the Ki in experiment [1] and in experiment [2] was less than 25 nM in each case. In addition, in experiment [3], the IC50 lay within 25 to 50 nM.
In the case of `CN1CCN(Cc2cc(NC(=O)c3csc4c3CCN(Cc3cccnc3)C4)cc(C(F)(F)F)c2)CC1` [Example 1, N-(3-((4-methylpiperazin-1-yl)methyl)-5-(trifluoromethyl)phenyl)-6-(pyridin-3-ylmethyl)-4,5,6,7-tetrahydrothieno[2,3-c]pyridine-3-carboxamide], the Ki was less than 25 nM in experiment [1] and 25 to 50 nM in experiment [2]. This molecule registered an IC50 in experiment [3] of 50 to 80 nM.
`COCCNc1ncc(CN2CCc3c(C(=O)Nc4cc(F)cc(C(F)(F)F)c4)csc3C2)cn1` [Example 41, N-(3-fluoro-5-(trifluoromethyl)phenyl)-6-((2-((2-methoxyethyl)amino)pyrimidin-5-yl)methyl)-4,5,6,7-tetrahydrothieno[2,3-c]pyridine-3-carboxamide]: the inhibition constant Ki in experiment [1] and in experiment [2] was less than 25 nM each time. In experiment [3], this molecule gave a half-maximal inhibitory concentration (IC50) of 50 to 80 nM.
Consider `N#Cc1cc(NC(=O)c2csc3c2CCN(Cc2cncnc2)C3)cc(C(F)(F)F)c1` [Example 14, N-(3-cyano-5-(trifluoromethyl)phenyl)-6-(pyrimidin-5-ylmethyl)-4,5,6,7-tetrahydrothieno[2,3-c]pyridine-3-carboxamide], for which the inhibition constant (Ki) in experiment [1] and in experiment [2] was less than 25 nM in each case. In experiment [3], the 50% inhibitory concentration (IC50) was less than 25 nM.
`O=C(Nc1cc(F)cc(OC(F)(F)F)c1)c1csc2c1CCN(Cc1cncnc1)C2` [Example 7, N-(3-fluoro-5-(trifluoromethoxy)phenyl)-6-(pyrimidin-5-ylmethyl)-4,5,6,7-tetrahydrothieno[2,3-c]pyridine-3-carboxamide]: the Ki in experiment [1] and in experiment [2] was less than 25 nM in each case. The half-inhibitory concentration (IC50) in experiment [3] is less than 25 nM.
As for `O=C(Nc1cc(F)cc(C(F)(F)F)c1)c1csc2c1CCN(Cc1cnc(NC3COC3)nc1)C2` [Example 37, N-[3-fluoro-5-(trifluoromethyl)phenyl]-6-[[2-(oxetan-3-ylamino)pyrimidin-5-yl]methyl]-5,7-dihydro-4H-thieno[2,3-c]pyridine-3-carboxamide], the Ki in experiment [1] and in experiment [2] was less than 25 nM throughout. In experiment [3], this molecule registered an IC50 of 25 to 50 nM.
For `O=C(Nc1cccc(OC(F)F)c1)c1csc2c1CCN(Cc1cncnc1)C2` [Example 13, N-(3-(difluoromethoxy)phenyl)-6-(pyrimidin-5-ylmethyl)-4,5,6,7-tetrahydrothieno[2,3-c]pyridine-3-carboxamide], the inhibition constant Ki in experiment [1] and in experiment [2] was less than 25 nM each time. Also, the half-maximal inhibitory concentration (IC50) in experiment [3] lay in the range of 50 to 80 nM.
In the case of `O=C(Nc1cncc(C(F)(F)F)c1)c1csc2c1CCN(Cc1cncc(F)c1)C2` [Example 33, 6-((5-fluoropyridin-3-yl)methyl)-N-(5-(trifluoromethyl)pyridin-3-yl)-4,5,6,7-tetrahydrothieno[2,3-c]pyridine-3-carboxamide], the Ki in experiment [1] and in experiment [2] was less than 25 nM in each case. The molecule further displayed a half-inhibitory concentration (IC50) in experiment [3] of 25 to 50 nM.
As to `Nc1nccnc1CN1CCc2c(C(=O)Nc3cccc(C(F)(F)F)c3)csc2C1` [Example 27, 6-((3-aminopyrazin-2-yl)methyl)-N-(3-(trifluoromethyl)phenyl)-4,5,6,7-tetrahydrothieno[2,3-c]pyridine-3-carboxamide], the inhibition constant (Ki) in experiment [1] and in experiment [2] was less than 25 nM in each case. The molecule also displayed a 50% inhibitory concentration (IC50) in experiment [3] of less than 25 nM.
Turning to `Cc1cn(-c2cc(NC(=O)c3csc4c3CCN(Cc3cncnc3)C4)cc(C(F)(F)F)c2)cn1` [Example 3, N-(3-(4-methyl-1H-imidazol-1-yl)-5-(trifluoromethyl)phenyl)-6-(pyrimidin-5-ylmethyl)-4,5,6,7-tetrahydrothieno[2,3-c]pyridine-3-carboxamide], the inhibition constant Ki in experiment [1] and in experiment [2] was less than 25 nM throughout. In experiment [3], the IC50 lay in the range of 25 to 50 nM.
On to `Cn1cncc1C(=O)N1CCc2c(C(=O)Nc3cc(F)cc(C(F)(F)F)c3)csc2C1` [Example 49, N-(3-fluoro-5-(trifluoromethyl)phenyl)-6-(1-methyl-1H-imidazole-5-carbonyl)-4,5,6,7-tetrahydrothieno[2,3-c]pyridine-3-carboxamide], for which the Ki in experiment [1] and in experiment [2] was less than 25 nM in each case. Further, in experiment [3], the 50% inhibitory concentration (IC50) is less than 25 nM.
